According to patent US20090246293A1 (priority 2008, published 2009):
Read-outs that look alike come from different tables or passages of the source.

How the values were obtained:
[1] = test system: Pseudoperonospora cubensis (PSPECU); assay: Droplet application on cucumber leaf, growth chamber (Examples 5a-d); format: in vivo; settings: for % disease at 100 ppm of substance alone: substance alone 100 ppm; for % disease at 500 ppm of substance alone: substance alone 500 ppm, untreated check 91%; for % disease at 1000 ppm of substance alone: substance alone 1000 ppm
Protocol: Examples 5a through 5d were conducted in growth chambers on cucumber plants. Cucumbers (Cucumis sativus cv Bush Pickle Hybrid #901261) were grown from seed in 5 cm by 5 cm pots containing MetroMix™ growth medium (Scotts, Marysville, Ohio) and maintained in a glasshouse with supplementary light sources to provide a 14 hour photoperiod at 24-29° C. until the plants were in the 2-3 true leaf stage of growth and the oldest leaf was fully expanded.
For examples 5a through 5d, described below, samples of mancozeb formulated as Dithane DG NT were dissolved in water to form a ½×dilution series. Mancozeb rates were 400, 200, 100 and 50 ppm. Samples of various aldehydes, amino acids, carboxylic acids, amines and alcohols were dissolved in acetone and then mixed with aqueous solutions of mancozeb. Attractant rates in the dilute solutions were 100, 200, 500 or 1000 ppm, depending on the experiment.
Mixtures of attractant or attractant derivative plus mancozeb or mancozeb alone were applied to cucumber as a row of 5 or 7.5 ul droplets using a multi-channel pipetting device. Five droplets spaced 1 cm apart were placed along the mid-rib of the expanded cucumber leaf with the first droplet being positioned at least 1-cm from the leaf apex. Each treatment was replicated three or four times, depending on the experiment. Two to three hours after applying the treatments when droplets had dried, plants were inoculated with a suspension of sporangia of a Pseudoperonospora cubensis (PSPECU) and incubated as described in the methods for sprayed tests. When symptoms were well developed in untreated check plants, the experiment was assessed visually using a template 2 cm wide and 7 cm long with the long axis centered on the mid-rib of the treated leaf.
Reduction in percent disease was calculated by subtracting percent disease on plants receiving a mixture of mancozeb plus the specified test substance from percent disease on plants receiving mancozeb alone. The results for examples 5a-5d are shown below in Tables 7-10; the reduction in percent disease was indicated as follows: […]

[2] = test system: Phytophthora infestans (PHYTIN); format: in vivo; settings: for % disease at 500 ppm of substance alone PHYTIN: substance alone 500 ppm, untreated check 95
[3] = test system: Plasmopara viticola (PLASVI); format: in vivo; settings: for % disease at 500 ppm of substance alone PLASVI: substance alone 500 ppm, untreated check 95
[4] = test system: Pseudoperonospora cubensis (PSPECU); settings: in vivo
[5] = substance 100 ppm with mancozeb 200 ppm vs mancozeb alone, Table 9
[6] = substance 500 ppm with mancozeb 25 ppm (Dithane DGNT), foliar spray, inoculated 2 to 3 hours after treatment
[7] = substance 500 ppm with mancozeb 6.25 ppm (Dithane DGNT), foliar spray, inoculated 2 to 3 hours after treatment
[8] = substance 500 ppm with mancozeb 200 ppm vs mancozeb alone, Table 8
[9] = substance 100 ppm with mancozeb 200 ppm vs mancozeb alone, Table 10
[10] = substance 200 ppm with mancozeb 50 ppm vs mancozeb alone, cucumber
[11] = substance 1000 ppm with mancozeb 50 ppm vs mancozeb alone, cucumber
[12] = aldehyde derivative 100 ppm with mancozeb, Table 17
[13] = fungicide with Formulation I at 100 ppm, Table 19

## CCC(C=O)CC [2-ethylbutyraldehyde]
[1]; [5]
  Reduction in % Disease: x (0-20% reduction in percent disease)
[1]; untreated check 92%, Table 9
  % disease at 100 ppm of substance alone: 65%

## CCC(C)C=O (centres unmarked) [2-methylbutyraldehyde]
[2]; [6]
  Reduction in percent disease PHYTIN: x (0-20% reduction in percent disease)
[2]
  % disease at 500 ppm of substance alone PHYTIN: 95%
[3]; [7]
  Reduction in percent disease PLASVI: x (0-20% reduction in percent disease)
[3]
  % disease at 500 ppm of substance alone PLASVI: 95%
[1]; [5]
  Reduction in % Disease: x (0-20% reduction in percent disease)
[1]; [8]
  Reduction in % Disease: x (0-20% reduction in percent disease)
[1]; untreated check 92%, Table 9
  % disease at 100 ppm of substance alone: 98%
[1]
  % disease at 500 ppm of substance alone: 74%

## CC(C)(C)CC=O [3,3-dimethylbutyraldehyde]
[2]; [6]
  Reduction in percent disease PHYTIN: x (0-20% reduction in percent disease)
[2]
  % disease at 500 ppm of substance alone PHYTIN: 95%
[3]; [7]
  Reduction in percent disease PLASVI: x (0-20% reduction in percent disease)
[3]
  % disease at 500 ppm of substance alone PLASVI: 87%
[1]; [5]
  Reduction in % Disease: x (0-20% reduction in percent disease)
[1]; [8]
  Reduction in % Disease: x (0-20% reduction in percent disease)
[1]; untreated check 92%, Table 9
  % disease at 100 ppm of substance alone: 96%
[1]
  % disease at 500 ppm of substance alone: 75%

## CC(C)=CC=O [3-methyl-2-butenaldehyde]
[2]; [6]
  Reduction in percent disease PHYTIN: x (0-20% reduction in percent disease)
[2]
  % disease at 500 ppm of substance alone PHYTIN: 95%
[3]; [7]
  Reduction in percent disease PLASVI: xxx (36-50% reduction in percent disease)
[3]
  % disease at 500 ppm of substance alone PLASVI: 95%
[1]; [5]
  Reduction in % Disease: x (0-20% reduction in percent disease)
[1]; [8]
  Reduction in % Disease: x (0-20% reduction in percent disease)
[1]; untreated check 92%, Table 9
  % disease at 100 ppm of substance alone: 100%
[1]
  % disease at 500 ppm of substance alone: 81%

## CCC(C)C(C)=O (centres unmarked) [3-methyl-2-pentanone]
[1]; [9]
  Reduction in % Disease: x (0-20% reduction in percent disease)
[1]; untreated check 100%, Table 10
  % disease at 100 ppm of substance alone: 100%

## CC(=O)CC(C)C [4-methyl-2-pentanone]
[1]; [9]
  Reduction in % Disease: x (0-20% reduction in percent disease)
[1]; untreated check 100%, Table 10
  % disease at 100 ppm of substance alone: 93%

## N[C@@H](CC(=O)O)C(=O)O [Aspartic acid]
[1]; [10]
  Reduction in % Disease: xx (21-35% reduction in percent disease)
[1]; [11]
  Reduction in % Disease: xx (21-35% reduction in percent disease)
[1]; untreated check 100%
  % disease at 1000 ppm of substance alone: 100%

## CC(C)C/C=N/N(C)c1ccccc1 [Compound AA]
[2]; [12]
  Reduction in percent disease PHYTIN: x (0-20% reduction in percent disease)

## CC(C)C/C=N/NC(=O)c1ccccc1 [Compound I]
[4]
  Reduction in percent disease: xx (key: x: 0-20% reduction in percent disease; xx: 21-35% reduction in percent disease; xxx: 36-50% reduction in percent disease; xxxx: >50% reduction in percent disease)

## CC(C)C/C=N/NC(=O)c1ccc(O)cc1 [Compound V]
[2]; [12]
  Reduction in percent disease PHYTIN: xx (21-35% reduction in percent disease)

## CC(C)C/C=N/N(Cc1ccccc1)Cc1ccccc1 [Compound W]
[2]; [12]
  Reduction in percent disease PHYTIN: xx (21-35% reduction in percent disease)

## C=CCON=CCC(C)C [Compound X]
[2]; [12]
  Reduction in percent disease PHYTIN: xx (21-35% reduction in percent disease)

## CC(C)CC=NOCc1ccccc1 [Compound Y]
[2]; [12]
  Reduction in percent disease PHYTIN: x (0-20% reduction in percent disease)

## CC(C)C/C=N/N1CCCCC1 [Compound Z]
[2]; [12]
  Reduction in percent disease PHYTIN: xx (21-35% reduction in percent disease)

## O=CCC1CC1 [Cyclopropylacetaldehyde]
[2]; [6]
  Reduction in percent disease PHYTIN: x (0-20% reduction in percent disease)
[2]
  % disease at 500 ppm of substance alone PHYTIN: 95%
[3]; [7]
  Reduction in percent disease PLASVI: xx (21-35% reduction in percent disease)
[3]
  % disease at 500 ppm of substance alone PLASVI: 95%
[1]; [5]
  Reduction in % Disease: x (0-20% reduction in percent disease)
[1]; [8]
  Reduction in % Disease: x (0-20% reduction in percent disease)
[1]; untreated check 92%, Table 9
  % disease at 100 ppm of substance alone: 85%
[1]
  % disease at 500 ppm of substance alone: 90%

## O=[N+]([O-])c1cc(C(F)(F)F)c(Cl)c([N+](=O)[O-])c1Nc1ncc(C(F)(F)F)cc1Cl [Fluazinam, reference compound]
[2]; [13]
  Reduction in percent disease PHYTIN: xxx (36-50% reduction in percent disease)
[3]; [13]
  Reduction in percent disease PLASVI: xxx (36-50% reduction in percent disease)

## N[C@@H](CCC(=O)O)C(=O)O [Glutamic acid]
[2]; [6]
  Reduction in percent disease PHYTIN: xx (21-35% reduction in percent disease)
[2]
  % disease at 500 ppm of substance alone PHYTIN: 95%
[3]; [7]
  Reduction in percent disease PLASVI: xxx (36-50% reduction in percent disease)
[3]
  % disease at 500 ppm of substance alone PLASVI: 93%
[1]; [10]
  Reduction in % Disease: xx (21-35% reduction in percent disease)
[1]; [8]
  Reduction in % Disease: x (0-20% reduction in percent disease)
[1]; [11]
  Reduction in % Disease: x (0-20% reduction in percent disease)
[1]
  % disease at 500 ppm of substance alone: 90%
[1]; untreated check 100%
  % disease at 1000 ppm of substance alone: 100%

## CC(C)CCO [Isoamyl alcohol]
[1]; [10]
  Reduction in % Disease: xx (21-35% reduction in percent disease)
[1]; [11]
  Reduction in % Disease: x (0-20% reduction in percent disease)
[1]; untreated check 100%
  % disease at 1000 ppm of substance alone: 100%

## CC(C)CCN [Isoamyl amine]
[1]; [10]
  Reduction in % Disease: xxx (36-50% reduction in percent disease)
[1]; [11]
  Reduction in % Disease: xxx (36-50% reduction in percent disease)
[1]; untreated check 100%
  % disease at 1000 ppm of substance alone: 100%

## CC(C)CO [Isobutanol]
[2]; [6]
  Reduction in percent disease PHYTIN: xxx (36-50% reduction in percent disease)
[2]
  % disease at 500 ppm of substance alone PHYTIN: 95%
[3]; [7]
  Reduction in percent disease PLASVI: xxxx (>50% reduction in percent disease)
[3]
  % disease at 500 ppm of substance alone PLASVI: 78%
[1]; [10]
  Reduction in % Disease: x (0-20% reduction in percent disease)
[1]; [8]
  Reduction in % Disease: x (0-20% reduction in percent disease)
[1]; [11]
  Reduction in % Disease: xxxx (>50% reduction in percent disease)
[1]
  % disease at 500 ppm of substance alone: 95%
[1]; untreated check 100%
  % disease at 1000 ppm of substance alone: 100%

## CC(C)C=O [Isobutyraldehyde]
[1]; [5]
  Reduction in % Disease: x (0-20% reduction in percent disease)
[1]; untreated check 92%, Table 9
  % disease at 100 ppm of substance alone: 97%

## CC(C)CCC(=O)O [Isocaproic acid]
[2]; [6]
  Reduction in percent disease PHYTIN: xxx (36-50% reduction in percent disease)
[2]
  % disease at 500 ppm of substance alone PHYTIN: 95%
[3]; [7]
  Reduction in percent disease PLASVI: xxx (36-50% reduction in percent disease)
[3]
  % disease at 500 ppm of substance alone PLASVI: 93%
[1]; [10]
  Reduction in % Disease: xxx (36-50% reduction in percent disease)
[1]; [8]
  Reduction in % Disease: x (0-20% reduction in percent disease)
[1]; [11]
  Reduction in % Disease: xxx (36-50% reduction in percent disease)
[1]
  % disease at 500 ppm of substance alone: 88%
[1]; untreated check 100%
  % disease at 1000 ppm of substance alone: 100%

## CC(C)CC(=O)O [Isovaleric acid]
[1]; [10]
  Reduction in % Disease: xx (21-35% reduction in percent disease)
[1]; [11]
  Reduction in % Disease: xx (21-35% reduction in percent disease)
[1]; untreated check 100%
  % disease at 1000 ppm of substance alone: 100%

## CON=C(C(=O)OC)c1ccccc1CON=C(C)c1cccc(C(F)(F)F)c1 [Trifloxystrobin, reference compound]
[2]; [13]
  Reduction in percent disease PHYTIN: x (0-20% reduction in percent disease)
[3]; [13]
  Reduction in percent disease PLASVI: x (0-20% reduction in percent disease)

## CCCCC=O [Valeraldehyde]
[2]; [6]
  Reduction in percent disease PHYTIN: x (0-20% reduction in percent disease)
[2]
  % disease at 500 ppm of substance alone PHYTIN: 95%
[3]; [7]
  Reduction in percent disease PLASVI: x (0-20% reduction in percent disease)
[3]
  % disease at 500 ppm of substance alone PLASVI: 95%
[1]; [5]
  Reduction in % Disease: x (0-20% reduction in percent disease)
[1]; [8]
  Reduction in % Disease: x (0-20% reduction in percent disease)
[1]; untreated check 92%, Table 9
  % disease at 100 ppm of substance alone: 93%
[1]
  % disease at 500 ppm of substance alone: 94%
